Several values for one entry are separate records, joined by “and”; a condition that tells them apart may be missing. Equal values may be shown once. Entries after “also recorded” stand apart in the source; their conditions may differ. No end group written: not given here.
How the values were obtained:
[1] = system: TLR4; test: Inhibition of TLR4 signaling in thioglycollate-elicited mouse macrophages (effective concentration, overall inhibitory activity); type: cell-based; settings: for Effective conc.: TLR4 pathway, thioglycollate-elicited mouse macrophages
Protocol: C57BL/6J mice were obtained from The Jackson Laboratory (Bar Harbor, Me.). Primary peritoneal macrophages were obtained by peritoneal lavage 4 days after intraperitoneal injection (3 ml) of sterile 3% thioglycolate broth. Washed cells were resuspended in RPMI 1640 which contained 2% FBS, 1% penicillin:streptomycin and 2 mM L-glutamine. After plating, cells were incubated overnight at 37° C. and then washed with PBS to remove non-adherent cells. Cells were exposed to peptides 30 min before stimulation with a TLR agonist.
TIRAP/Mal functions to facilitate MyD88 recruitment to the activated TLR4 and TLR2, presumably through a simultaneous interaction with receptor and MyD88 TIR domains. Therefore, multiple TIR:TIR interaction sites are expected in TIRAP TIR. The decoy peptide approach was used to obtain leads on the functional protein-protein interfaces within TIRAP/Mal, a TLR adapter protein. To this end, eleven TIRAP TIR-derived decoy peptides were designed to be structurally homologous to the TLR4 TIR-derived decoy peptides used previously (1), so that each peptide represents a non-fragmented patch of the TIRAP TIR surface, with the entire domain encompassed by the set of peptides. The TIRAP TIR-derived decoy peptides were synthesized in tandem with the cell-permeating sequence of Antennapedia homeodomain (21) and each peptide was tested for the ability to inhibit TLR4 and TLR2 signaling in primary mouse macrophages. Peptide sequences and the structural regions they represent are shown in reference (30).
C57BL/6J mice were obtained from The Jackson Laboratory (BarHarbor, Me.). Harvesting, culturing, and stimulation of peritoneal macrophages were described in previous publications (1, 18, 19). Escherichia coli K235 LPS (34) was used at the final concentration of 100 ng/ml. The 2,3-bis(palmitoyloxy)-(2-RS)-propyl-N-palmitoyl-(R)-Cys-Ser-Lys4-OH (P3C) and S[2,3-bis(palmitoyloxy)-(2-RS)-propyl]-[R]-Cys-Ser-Lys4-OH (P2C) (EMC Microcollections, Tubingen, Germany) were used at 500 and 50 ng/ml, respectively. Oligonucleotide (ODN) 1668 and low m.w. polyinosinic-polycytidylic acid [poly(I:C)] in complex with LyoVec were obtained from InvivoGen; these agonists were used at 2.5 μM and 400 ng/ml, respectively.

[2] = system: C57BL/6J mice; test: In vivo efficiency of decoy peptides (Table 1; LPS challenge in mice); set-up: species or system mouse
Protocol: FIG. 4. Effect of select TRAP decoy peptides on TNF-α and IL-6 in blood following an ip LPS challenge. C57BL/6J mice were injected with TR5, TR6, or TR7 peptide or mock-treated 1 hour before injection of purified E. coli LPS. Peptides and LPS were injected to mice intraperitonealy 10 nmol or 1 μg per gram of animal weight, correspondingly.
(§1) FIG. 10. […] (A-E) C57BL/6J mice were injected i.p. with purified Escherichia coli K235 LPS (1 μg/g) or PBS. Peptides (10 nmol/g of animal weight) were injected i.p. (A, B, D, E) or i.v. (C) 1 h before (A, B, and C) or 30 min after (D, E) i.p. injection of LPS. Data in panels A and D show plasma IL-6 and TNF-α levels measured 2 h after LPS challenge. Peptide TM8/9 was used as a non-inhibitory control peptide. Data represent the means±s.e.m. for 6-12 blood samples obtained in at least three independent experiments. *p<0.01. (F, G) C57BL/6J mice were challenged i.p. with a lethal LPS dose (17.5 μg/g). Peptides (10 nmol/g) were injected i.p. 1 h before LPS challenge. […] The statistical significance of changes in mortality and survival time was determined by the Mantel Cox log-rank test using GraphPad Prism software (Version 5.04). *p<0.01.
(§2) Eight-week-old C57BL/6J mice were injected with 1 or 17.5 μg/g animal weight of E. coli K235 LPS i.p. Peptides reconstituted in PBS were administered i.p. or i.v. Control groups received equivalent volume of solvent (PBS). The blood samples were collected 1, 2, 4, and 8 h, or 2, 8, and 24 h after LPS challenge. The plasma samples were obtained and kept frozen until TNF-α and IL-6 were measured by ELISA. Survival of animals was monitored every 6-16 h after LPS challenge. All animal experiments were carried out with institutional approval.

[3] = system: mouse peritoneal macrophages; settings: 3-h incubation; data not shown
Protocol: A total of 5×10^4 mouse peritoneal macrophages was plated into 96-well tissue culture plates, incubated overnight, and treated with peptides for 3 h. After the treatment, cells were incubated with MTT at 0.5 mg/ml (Sigma-Aldrich) for 3 h. Fifty microliters DMSO was added to cells before reading OD at 540 nm.

[4] = system: MAPK (ERK, JNK, p38); test: MAPK activation by peptide alone, macrophages without TLR agonist; type: cell-based, mouse; settings: peptide alone; data not shown
Protocol: Neither TIRAP peptide activated ERK in cells incubated without a TLR agonist (not shown). […] The mechanism of this differential MAPK activation by select peptides, although interesting, is not understood at this time. Peptides TR9 and TR11 inhibited both ERK and JNK MAPKs (FIG. 1D). Peptide-induced inhibition of ERK persisted over a long period of time.
We next examined whether TRAM peptides inhibit the TLR4-mediated p38, ERK, and JNK MAPK activation. Murine macrophages pretreated with peptides for 30 min were challenged with LPS. Cell lysates were collected 30 min post-stimulation and analyzed for MAPK phosphorylation by Western analysis. Consistent with peptide effects on steady-state mRNA, both TM4 and TM6 inhibited activation of all three MAPKs (FIG. 5C). The inhibition of MAPKs by TM4 or TM6 was long lasting; it persisted for at least 1 h after LPS stimulation (data not shown). To characterize further the effects of TRAM peptides on MAPKs, murine macrophages were treated with TRAM peptides, but not challenged by LPS.

[5] = system: C57BL/6J mice; test: Plasma TNF-α and IL-6 after sublethal LPS challenge in C57BL/6J mice; type: in vivo, mouse
Protocol: as §1, §2
We next studied whether peptides identified as inhibitory in in vitro tests are effective in vivo. C57BL/6J mice were challenged i.p. with a sublethal LPS dose (1 μg/g animal weight), and plasma TNF-α and IL-6 levels were monitored for 8 h after the challenge. In the first series of experiments, we injected 10 nmol/g TM4 or TM6 i.p. 1 h before LPS challenge. The 10 nmol/g dose corresponds to 38, 41, and 32 mg/kg TM4, TM6, and TM4-ΔC, respectively.

[6] = system: C57BL/6J mice; test: Survival after lethal LPS challenge in C57BL/6J mice; type: in vivo, mouse; settings: LPS 17.5 μg/g i.p.
Protocol: as §1, §2
We next studied whether inhibitory peptides protect mice from a lethal LPS challenge. TR6, a previously described inhibitory peptide derived from the third helical region of TRAP (30), was also included in this study as an additional control. C57BL/6J mice were injected i.p. with 17.5 μg/g LPS. This dose induced 100% mortality in the control group (FIG. 10F). […] The peptide-treated survivors appeared active and healthy at the time the experiments were terminated, 7 d after injection of LPS.

RQIKIWFQNRRMKWKKCLQDAIDHS [TF5-ΔC]
Effective conc. [1]: 20 µM | In vivo efficiency [2]: Yes, i.p.

RQIKIWFQNRRMKWKKENFLRDTWCNFQFY [TM6]
Cell viability (MTT) [3]: Neither inhibitory peptide affected cell viability in a significant way

RQIKIWFQNRRMKWKKIVFAEMPCGRLHLQ [TM4]
Cell viability (MTT) [3]: Neither inhibitory peptide affected cell viability in a significant way

TM3: TRAM decoy peptide: Antennapedia sequence at N terminus of QNDFGIRPG (RQIKIWFQNRRMKWKKQNDFGIRPG)
p38 and ERK MAPK activation without LPS stimulation [4]: weakly activated

RQIKIWFQNRRMKWKKIVFAEMPCG [TM4-ΔC]
Effective conc. [1]: 10 µM | Inhibitory activity of modified TM4 peptides on TLR4-driven MAPK activation and cytokine mRNA (FIG. 8) ([1]; relative ranking among TM4 variants): close to that of TM4 | In vivo efficiency [2]: yes, i.p. | Plasma TNF-α and IL-6 ([5]; 10 nmol/g i.p. 30 min after LPS, 2 h after LPS or thereafter): markedly diminished | Circulating TNF-α and IL-6 ([5]; 10 nmol/g i.p. 30 min after LPS, measured 1 h after LPS): did not affect | Circulating IL-6 and TNF-α levels ([5]; 10 nmol/g i.v., LPS i.p., 8-h observation): significantly lowered | Efficiency with respect to circulating IL-6 at 4- or 8-h time points ([5]; dose increased to 25 nmol/g): did not augment | LPS-induced systemic cytokine response in vivo ([5]; sublethal LPS 1 μg/g, peptide 10 nmol/g): strongly suppress; also recorded: effectively suppress | Survival after lethal LPS challenge ([6]; peptide 10 nmol/g i.p. 1 h before): rescued all animals and 10 of 10 and protect | Survival after lethal LPS challenge, therapeutic administration ([6]; peptide i.p. 3 h after LPS): Five of seven

From patent publication US20130203649A1, “INHIBITORS OF TLR SIGNALING BY TARGETING TIR DOMAIN INTERFACES” (UNIVERSITY OF MARYLAND, BALTIMORE, priority 2012, published 2013)
